Test results as given in the supplement of paper PMC10307832.

How the values were obtained:
Test in all cases: relative viability (nuclei count vs DMSO), 5 days (fraction); higher = more cells survive
[1] = compound: CCOC1=CC=CC=C1N=NC2=C(NN(C2=O)C3=NC(=CS3)C4=CC=CC=C4)C [BAM7] + Cc1cc(Nc2cc(N3CCN(C)CC3)nc(Sc3ccc(NC(=O)C4CC4)cc3)n2)n[nH]1 [Tozasertib] (partner 0.1 µM)
How it was run: (§1)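 Relative viability was taken as the ratio of nuclei in treated wells to nuclei in vehicle wells. Lung cancer cell lines in 1536-well plates received compounds by pin tool one day after seeding, either one drug alone or a fixed anchor-drug dose plus five library-drug doses (not always all listed) in √10 steps. Nuclei were counted on 4× images after 5 days of treatment, and values are medians of duplicate plates.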

[2] = compound: CCn1c(-c2nonc2N)nc2c(C#CC(C)(C)O)ncc(OC[C@H]3CCCNC3)c21 + COc1cccc2cc(-c3nc([C@H]4CC[C@H](C(=O)O)CC4)n4ncnc(N)c34)[nH]c12 [OSI-027] (partner 0.5 µM)
How it was run: as §1

[3] = compound: CCn1c(-c2nonc2N)nc2c(C#CC(C)(C)O)ncc(OC[C@H]3CCCNC3)c21 + Cc1nc(Nc2ncc(C(=O)Nc3c(C)cccc3Cl)s2)cc(N2CCN(CCO)CC2)n1 [Dasatinib] (partner 0.075 µM)
How it was run: as §1

[4] = compound: CCn1c(-c2nonc2N)nc2c(C#CC(C)(C)O)ncc(OC[C@H]3CCCNC3)c21 + Nc1nc2[nH]cc(CCc3ccc(C(=O)N[C@@H](CCC(=O)O)C(=O)O)cc3)c2c(=O)[nH]1 [Pemetrexed] (partner 0.2 µM)
How it was run: as §1

UMC-11
relative viability ([1]; first compound 0.5 µM): 0.2
relative viability ([1]; first compound 5 µM): 0.202
relative viability ([1]; first compound 15.81 µM): 0.196
relative viability ([1]; first compound 50 µM): 0.198
relative viability ([2]; first compound 0.01 µM): 0.512
relative viability ([2]; first compound 0.03162 µM): 0.489
relative viability ([2]; first compound 0.1 µM): 0.515
relative viability ([2]; first compound 0.3162 µM): 0.423
relative viability ([2]; first compound 1 µM): 0.496
relative viability ([3]; first compound 0.01 µM): 0.449
relative viability ([3]; first compound 0.03162 µM): 0.498
relative viability ([3]; first compound 0.1 µM): 0.438
relative viability ([3]; first compound 0.3162 µM): 0.449
relative viability ([3]; first compound 1 µM): 0.399
relative viability ([4]; first compound 0.01 µM): 0.804
relative viability ([4]; first compound 0.03162 µM): 0.758
relative viability ([4]; first compound 0.1 µM): 0.749
relative viability ([4]; first compound 0.3162 µM): 0.722
relative viability ([4]; first compound 1 µM): 0.758
